Source: PMC6015499 (Journal of medicinal chemistry, 2017)
Like-named read-outs stand apart in the source and are kept apart here.

Experiments:
[1] = ALT level in mouse serum during pharmacokinetics study; format: in vivo; conditions: mouse model
[2] = PAMPA permeability; format: in vitro ADME
[3] = tested on: Huh7.5.1 cells; experiment: ATPlite cytotoxicity assay; format: cell-based
[4] = In vivo pharmacokinetics and tissue distribution in mice; set-up: species or system male CD-1 mice; conditions: mouse, single i.p. dose 1 mg/kg
[5] = aqueous kinetic solubility; format: physicochemical; conditions: phosphate buffer (pH 7.4)

Compound | PAMPA permeability [2] | further results
Cc1oc(-c2ccc(Cl)c(Cl)c2)nc1CN1CCC(C(=O)NCCCN2C[C@H](C)C[C@H](C)C2)CC1 [7ii, N-(3-(cis-3,5-Dimethylpiperidin-1-yl)propyl)-1-((2-(3,4-dichlorophenyl)-5-methyloxazol-4-yl)methyl)piperidine-4-carboxamide] | 522 1×10^−6 cm/s | hepatotoxicity indicated by ALT level [1]: without obvious hepatotoxicity; cytotoxicity in combination (ATPlite) [3]: without significant cytotoxicity; liver concentration throughout 24 h post-administration [4]: 3.33 to 9.82 µM
N-(3-(cis-3,5-Dimethylpiperidin-1-yl)propyl)-1-((2-(2-chloro-6-methoxyphenyl)-5-methyloxazol-4-yl)methyl)piperidine-4-carboxamide [7ww] | – | aqueous solubility [5]: >73.0 µg/mL; PAMPA permeability ([2]; PAMPA): 197.7 1×10^−6 cm/s
Cc1oc(-c2c(F)cccc2F)nc1CN1CCC(C(=O)NCCCN2C[C@H](C)C[C@H](C)C2)CC1 [7jj, N-(3-(cis-3,5-Dimethylpiperidin-1-yl)propyl)-1-((2-(2,6-difluorophenyl)-5-methyloxazol-4-yl)methyl)piperidine-4-carboxamide] | 82.4 1×10^−6 cm/s | –
Cc1ccccc1-c1nc(CN2CCC(C(=O)NCCCN3[C@H](C)CCC[C@@H]3C)CC2)c(C)o1 [7i, N-(3-(cis-2,6-Dimethylpiperidin-1-yl)propyl)-1-((5-methyl-2-(otolyl)oxazol-4-yl)methyl)piperidine-4-carboxamide] | 55.4 1×10^−6 cm/s | –
CCc1ccccc1-c1nc(CN2CCC(C(=O)NCCCN3C[C@H](C)C[C@H](C)C3)CC2)c(C)o1 [7v, N-(3-(cis-3,5-Dimethylpiperidin-1-yl)propyl)-1-((2-(2-ethylphenyl)-5-methyloxazol-4-yl)methyl)piperidine-4-carboxamide] | 106.1 1×10^−6 cm/s | –
Cc1ccccc1-c1nc(CN2CCC(C(=O)NCCCN3CC4CCCC(C4)C3)CC2)c(C)o1 [7m, N-(3-(3-Azabicyclo[3.3.1]nonan-3-yl)propyl)-1-((5-methyl-2-(otolyl)oxazol-4-yl)methyl)piperidine-4-carboxamide] | 330.9 1×10^−6 cm/s | –
Cc1ccccc1-c1nc(CN2CCC(C(=O)NCCCN3CCOCC3)CC2)c(C)o1 [7q] | 432.4 1×10^−6 cm/s | –
Cc1oc(-c2c(Br)cccc2Br)nc1CN1CCC(C(=O)NCCCN2C[C@H](C)C[C@H](C)C2)CC1 [7ll, N-(3-(cis-3,5-Dimethylpiperidin-1-yl)propyl)-1-((2-(2,6-dibromophenyl)-5-methyloxazol-4-yl)methyl)piperidine-4-carboxamide] | <1.0 1×10^−6 cm/s | –
Cc1ccccc1-c1nc(CN2CCC(C(=O)NCCCN3CCC(C)(C)CC3)CC2)c(C)o1 [7f, N-(3-(4,4-Dimethylpiperidin-1-yl)propyl)-1-((5-methyl-2-(o-tolyl)-oxazol-4-yl)methyl)piperidine-4-carboxamide] | 241.4 1×10^−6 cm/s | –
Cc1cc(-c2nc(CN3CCC(C(=O)NCCCN4CCC(C(C)C)CC4)CC3)co2)ccc1F [18b, 1-((2-(4-Fluoro-3-methylphenyl)oxazol-4-yl)methyl)-N-(3-(4-isopropylpiperidin-1-yl)propyl)piperidine-4-carboxamide] | 276.4 1×10^−6 cm/s | –
